Experimental data taken from the kinase profiling compilation of Christmann-Franck et al. (2016).

Each compound was assayed against STK10 (human) (UniProt O94804) (assay: radiometric filter-binding kinase assay, Kinase HotSpot). Conditions: compound 0.5 µM; ATP 10 µM.

Point of comparison: CCOc1cc2ncnc(Nc3cccc(Br)c3)c2cc1OCC, residual activity 30.5%. Against it:
- COc1cc2ncnc(Nc3ccc(O)c(Br)c3)c2cc1OC — lower, 14.5%
- O=C1NC(=O)c2c1c1c3ccccc3[nH]c1c1[nH]c3cc(Br)ccc3c21 — higher, 84.6%
- COc1cc2c(cc1OC)-c1[nH]nc(Nc3cccc(F)c3)c1C2 — higher, 89%

The compounds below were run against RET (human) (UniProt P07949) in the same assay as above. Conditions: compound 0.5 µM; ATP 10 µM.

Point of comparison: COc1cc2ncnc(Nc3ccc(O)c(Br)c3)c2cc1OC, residual activity 21.4%. Against it:
- CCOc1cc2ncnc(Nc3cccc(Br)c3)c2cc1OCC — higher, 39.3%
- O=C1NC(=O)c2c1c1c3ccccc3[nH]c1c1[nH]c3cc(Br)ccc3c21 — higher, 80.1%
- COc1cc2c(cc1OC)-c1[nH]nc(Nc3cccc(F)c3)c1C2 — higher, 83.6%

Each compound was assayed against NEK11 (human) (UniProt Q8NG66) in the same assay as above. Conditions: compound 0.5 µM; ATP 10 µM.
NEK11 (human), sequence (Q8NG66 whole entry, looked up): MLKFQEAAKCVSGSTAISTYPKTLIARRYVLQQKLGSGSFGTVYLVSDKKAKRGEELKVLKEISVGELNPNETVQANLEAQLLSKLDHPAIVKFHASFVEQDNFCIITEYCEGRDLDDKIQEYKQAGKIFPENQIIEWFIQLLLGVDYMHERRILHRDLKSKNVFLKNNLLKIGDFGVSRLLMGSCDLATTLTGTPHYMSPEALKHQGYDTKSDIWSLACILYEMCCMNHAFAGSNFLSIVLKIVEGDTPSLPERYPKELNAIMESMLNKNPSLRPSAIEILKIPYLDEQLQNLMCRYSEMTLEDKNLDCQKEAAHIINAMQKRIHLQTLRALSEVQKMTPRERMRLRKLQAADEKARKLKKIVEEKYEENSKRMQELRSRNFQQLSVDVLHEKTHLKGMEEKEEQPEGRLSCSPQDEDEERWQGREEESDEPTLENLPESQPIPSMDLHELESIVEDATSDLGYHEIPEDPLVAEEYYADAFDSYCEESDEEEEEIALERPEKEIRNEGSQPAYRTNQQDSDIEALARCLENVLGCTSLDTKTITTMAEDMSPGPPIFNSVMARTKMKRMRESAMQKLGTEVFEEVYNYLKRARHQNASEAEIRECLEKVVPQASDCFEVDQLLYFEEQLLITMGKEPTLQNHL

Point of comparison: COc1cc2ncnc(Nc3ccc(O)c(Br)c3)c2cc1OC, residual activity 103%. Against it:
- CCOc1cc2ncnc(Nc3cccc(Br)c3)c2cc1OCC — the same, 103%
- O=C1NC(=O)c2c1c1c3ccccc3[nH]c1c1[nH]c3cc(Br)ccc3c21 — higher, 109%
- COc1cc2c(cc1OC)-c1[nH]nc(Nc3cccc(F)c3)c1C2 — lower, 98.9%

These compounds were tested against INSRR (human) (UniProt P14616) in the same assay as above. Conditions: compound 0.5 µM; ATP 10 µM.

Point of comparison: COc1cc2ncnc(Nc3ccc(O)c(Br)c3)c2cc1OC, residual activity 96.8%. Against it:
- CCOc1cc2ncnc(Nc3cccc(Br)c3)c2cc1OCC — lower, 88.8%
- O=C1NC(=O)c2c1c1c3ccccc3[nH]c1c1[nH]c3cc(Br)ccc3c21 — lower, 85.8%
- COc1cc2c(cc1OC)-c1[nH]nc(Nc3cccc(F)c3)c1C2 — higher, 99.2%

Each compound was assayed against DDR2 (human) (UniProt Q16832) in the same assay as above. Conditions: compound 0.5 µM; ATP 10 µM.

Point of comparison: O=C1NC(=O)c2c1c1c3ccccc3[nH]c1c1[nH]c3cc(Br)ccc3c21, residual activity 91.8%. Against it:
- COc1cc2ncnc(Nc3ccc(O)c(Br)c3)c2cc1OC — higher, 119%
- CCOc1cc2ncnc(Nc3cccc(Br)c3)c2cc1OCC — higher, 100%
- COc1cc2c(cc1OC)-c1[nH]nc(Nc3cccc(F)c3)c1C2 — higher, 110%

Each compound was assayed against HIPK2 (human) (UniProt Q9H2X6) in the same assay as above. Conditions: compound 0.5 µM; ATP 10 µM.

Point of comparison: O=C1NC(=O)c2c1c1c3ccccc3[nH]c1c1[nH]c3cc(Br)ccc3c21, residual activity 107%. Against it:
- COc1cc2ncnc(Nc3ccc(O)c(Br)c3)c2cc1OC — lower, 102%
- CCOc1cc2ncnc(Nc3cccc(Br)c3)c2cc1OCC — lower, 96.8%
- COc1cc2c(cc1OC)-c1[nH]nc(Nc3cccc(F)c3)c1C2 — lower, 103%

These compounds were tested against MARK2 (human) (UniProt Q7KZI7) in the same assay as above. Conditions: compound 0.5 µM; ATP 10 µM.

Point of comparison: CCOc1cc2ncnc(Nc3cccc(Br)c3)c2cc1OCC, residual activity 94.5%. Against it:
- COc1cc2ncnc(Nc3ccc(O)c(Br)c3)c2cc1OC — the same, 94.5%
- O=C1NC(=O)c2c1c1c3ccccc3[nH]c1c1[nH]c3cc(Br)ccc3c21 — lower, 40.4%
- COc1cc2c(cc1OC)-c1[nH]nc(Nc3cccc(F)c3)c1C2 — lower, 77.2%

Each compound was assayed against NTRK3 (human) (UniProt Q16288) in the same assay as above. Conditions: compound 0.5 µM; ATP 10 µM.

Point of comparison: CCOc1cc2ncnc(Nc3cccc(Br)c3)c2cc1OCC, residual activity 91.5%. Against it:
- COc1cc2ncnc(Nc3ccc(O)c(Br)c3)c2cc1OC — lower, 83.4%
- O=C1NC(=O)c2c1c1c3ccccc3[nH]c1c1[nH]c3cc(Br)ccc3c21 — lower, 28.8%
- COc1cc2c(cc1OC)-c1[nH]nc(Nc3cccc(F)c3)c1C2 — lower, 72.6%

The compounds below were run against IRAK1 (human) (UniProt P51617) in the same assay as above. Conditions: compound 0.5 µM; ATP 10 µM.

Point of comparison: COc1cc2c(cc1OC)-c1[nH]nc(Nc3cccc(F)c3)c1C2, residual activity 97.8%. Against it:
- COc1cc2ncnc(Nc3ccc(O)c(Br)c3)c2cc1OC — lower, 75.5%
- CCOc1cc2ncnc(Nc3cccc(Br)c3)c2cc1OCC — lower, 95.1%
- O=C1NC(=O)c2c1c1c3ccccc3[nH]c1c1[nH]c3cc(Br)ccc3c21 — lower, 81.8%

Each compound was assayed against CSNK1G2 (human) (UniProt P78368) in the same assay as above. Conditions: compound 0.5 µM; ATP 10 µM.

Point of comparison: CCOc1cc2ncnc(Nc3cccc(Br)c3)c2cc1OCC, residual activity 103%. Against it:
- COc1cc2ncnc(Nc3ccc(O)c(Br)c3)c2cc1OC — lower, 96.4%
- O=C1NC(=O)c2c1c1c3ccccc3[nH]c1c1[nH]c3cc(Br)ccc3c21 — lower, 89.5%
- COc1cc2c(cc1OC)-c1[nH]nc(Nc3cccc(F)c3)c1C2 — lower, 89.7%

The compounds below were run against RPS6KA3 KD1 KD2 (human) (UniProt P51812) in the same assay as above. Conditions: compound 0.5 µM; ATP 10 µM.
RPS6KA3 KD1 KD2 (human), sequence (P51812 whole entry, looked up): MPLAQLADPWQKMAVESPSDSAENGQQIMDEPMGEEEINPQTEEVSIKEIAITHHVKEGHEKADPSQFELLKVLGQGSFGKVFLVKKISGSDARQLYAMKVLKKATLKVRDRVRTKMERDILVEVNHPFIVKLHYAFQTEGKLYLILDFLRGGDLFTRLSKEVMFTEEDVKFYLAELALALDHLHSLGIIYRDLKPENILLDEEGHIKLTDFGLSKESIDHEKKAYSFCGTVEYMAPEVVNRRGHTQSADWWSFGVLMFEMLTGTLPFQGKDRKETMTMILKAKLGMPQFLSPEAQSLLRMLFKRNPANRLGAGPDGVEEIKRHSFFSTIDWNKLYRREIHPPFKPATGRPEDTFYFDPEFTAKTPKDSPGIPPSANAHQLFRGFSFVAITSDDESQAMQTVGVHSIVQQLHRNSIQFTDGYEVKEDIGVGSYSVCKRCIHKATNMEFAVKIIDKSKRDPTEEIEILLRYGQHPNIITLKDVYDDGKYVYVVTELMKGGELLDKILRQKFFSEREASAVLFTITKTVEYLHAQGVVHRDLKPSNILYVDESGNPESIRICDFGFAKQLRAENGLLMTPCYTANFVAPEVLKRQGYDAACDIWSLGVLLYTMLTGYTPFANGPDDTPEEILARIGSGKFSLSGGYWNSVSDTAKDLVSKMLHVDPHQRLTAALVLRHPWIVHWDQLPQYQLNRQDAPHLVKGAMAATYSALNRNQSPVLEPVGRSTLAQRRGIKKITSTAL

Point of comparison: CCOc1cc2ncnc(Nc3cccc(Br)c3)c2cc1OCC, residual activity 89.9%. Against it:
- COc1cc2ncnc(Nc3ccc(O)c(Br)c3)c2cc1OC — lower, 69.4%
- O=C1NC(=O)c2c1c1c3ccccc3[nH]c1c1[nH]c3cc(Br)ccc3c21 — lower, 46.3%
- COc1cc2c(cc1OC)-c1[nH]nc(Nc3cccc(F)c3)c1C2 — higher, 94.7%

The compounds below were run against DMPK (human) (UniProt Q09013) in the same assay as above. Conditions: compound 0.5 µM; ATP 10 µM.

Point of comparison: O=C1NC(=O)c2c1c1c3ccccc3[nH]c1c1[nH]c3cc(Br)ccc3c21, residual activity 104%. Against it:
- COc1cc2ncnc(Nc3ccc(O)c(Br)c3)c2cc1OC — lower, 101%
- CCOc1cc2ncnc(Nc3cccc(Br)c3)c2cc1OCC — lower, 102%
- COc1cc2c(cc1OC)-c1[nH]nc(Nc3cccc(F)c3)c1C2 — higher, 109%

What follows are compounds tested against ULK1 (human) (UniProt O75385) in the same assay as above. Conditions: compound 0.5 µM; ATP 10 µM.

Point of comparison: CCOc1cc2ncnc(Nc3cccc(Br)c3)c2cc1OCC, residual activity 98.8%. Against it:
- COc1cc2ncnc(Nc3ccc(O)c(Br)c3)c2cc1OC — lower, 87.2%
- O=C1NC(=O)c2c1c1c3ccccc3[nH]c1c1[nH]c3cc(Br)ccc3c21 — higher, 99.2%
- COc1cc2c(cc1OC)-c1[nH]nc(Nc3cccc(F)c3)c1C2 — higher, 103%

The compounds below were run against CDC42BPB (human) (UniProt Q9Y5S2) in the same assay as above. Conditions: compound 0.5 µM; ATP 10 µM.
CDC42BPB (human), sequence (Q9Y5S2 whole entry, looked up): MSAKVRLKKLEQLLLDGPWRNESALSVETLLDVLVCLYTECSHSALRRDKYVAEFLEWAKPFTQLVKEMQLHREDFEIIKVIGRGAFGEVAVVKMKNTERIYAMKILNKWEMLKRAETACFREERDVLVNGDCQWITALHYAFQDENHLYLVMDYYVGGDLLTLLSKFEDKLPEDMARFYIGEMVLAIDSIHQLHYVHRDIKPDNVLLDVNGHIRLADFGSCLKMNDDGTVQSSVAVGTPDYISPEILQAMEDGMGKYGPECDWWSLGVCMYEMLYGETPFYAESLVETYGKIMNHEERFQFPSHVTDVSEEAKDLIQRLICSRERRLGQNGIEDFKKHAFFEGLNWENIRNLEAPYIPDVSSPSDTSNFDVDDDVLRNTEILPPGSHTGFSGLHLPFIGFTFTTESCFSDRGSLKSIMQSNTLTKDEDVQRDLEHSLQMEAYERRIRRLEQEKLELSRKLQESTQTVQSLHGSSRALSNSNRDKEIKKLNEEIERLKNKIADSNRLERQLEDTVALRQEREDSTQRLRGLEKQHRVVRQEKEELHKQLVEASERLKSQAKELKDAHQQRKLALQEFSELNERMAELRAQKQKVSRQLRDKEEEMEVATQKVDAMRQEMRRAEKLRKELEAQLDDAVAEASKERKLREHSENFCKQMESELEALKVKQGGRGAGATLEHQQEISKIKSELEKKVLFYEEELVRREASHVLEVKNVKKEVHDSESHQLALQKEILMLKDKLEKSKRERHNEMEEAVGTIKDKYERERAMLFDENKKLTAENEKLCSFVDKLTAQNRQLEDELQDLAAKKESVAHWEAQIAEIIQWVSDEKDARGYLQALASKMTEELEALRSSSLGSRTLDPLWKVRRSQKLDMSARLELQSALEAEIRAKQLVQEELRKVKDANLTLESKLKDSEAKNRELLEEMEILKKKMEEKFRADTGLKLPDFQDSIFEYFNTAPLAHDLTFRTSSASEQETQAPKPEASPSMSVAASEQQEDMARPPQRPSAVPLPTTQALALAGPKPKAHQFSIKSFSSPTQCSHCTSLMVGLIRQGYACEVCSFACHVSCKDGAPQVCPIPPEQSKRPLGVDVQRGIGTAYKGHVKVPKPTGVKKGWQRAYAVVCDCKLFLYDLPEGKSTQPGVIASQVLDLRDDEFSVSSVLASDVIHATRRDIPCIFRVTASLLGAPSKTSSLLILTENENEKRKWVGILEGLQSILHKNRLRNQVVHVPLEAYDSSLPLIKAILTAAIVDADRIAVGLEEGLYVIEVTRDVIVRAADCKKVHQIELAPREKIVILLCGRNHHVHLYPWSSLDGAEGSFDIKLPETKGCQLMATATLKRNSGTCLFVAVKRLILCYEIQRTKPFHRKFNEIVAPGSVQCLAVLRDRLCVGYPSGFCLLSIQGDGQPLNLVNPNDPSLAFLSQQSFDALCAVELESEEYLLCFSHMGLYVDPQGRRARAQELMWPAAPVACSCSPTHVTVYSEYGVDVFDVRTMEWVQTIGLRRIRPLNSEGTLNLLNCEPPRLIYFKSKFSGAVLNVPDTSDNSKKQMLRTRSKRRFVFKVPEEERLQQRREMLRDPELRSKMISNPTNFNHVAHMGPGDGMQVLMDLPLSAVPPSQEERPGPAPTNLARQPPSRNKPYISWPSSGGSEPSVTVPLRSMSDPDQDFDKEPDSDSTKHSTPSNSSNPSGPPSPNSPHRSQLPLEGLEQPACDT

Point of comparison: COc1cc2ncnc(Nc3ccc(O)c(Br)c3)c2cc1OC, residual activity 98%. Against it:
- CCOc1cc2ncnc(Nc3cccc(Br)c3)c2cc1OCC — higher, 107%
- O=C1NC(=O)c2c1c1c3ccccc3[nH]c1c1[nH]c3cc(Br)ccc3c21 — lower, 84.1%
- COc1cc2c(cc1OC)-c1[nH]nc(Nc3cccc(F)c3)c1C2 — higher, 99.2%

These compounds were tested against MAP3K2 (human) (UniProt Q9Y2U5) in the same assay as above. Conditions: compound 0.5 µM; ATP 10 µM.

Point of comparison: O=C1NC(=O)c2c1c1c3ccccc3[nH]c1c1[nH]c3cc(Br)ccc3c21, residual activity 100%. Against it:
- COc1cc2ncnc(Nc3ccc(O)c(Br)c3)c2cc1OC — lower, 92.4%
- CCOc1cc2ncnc(Nc3cccc(Br)c3)c2cc1OCC — higher, 102%
- COc1cc2c(cc1OC)-c1[nH]nc(Nc3cccc(F)c3)c1C2 — lower, 84.5%

These compounds were tested against ULK2 (human) (UniProt Q8IYT8) in the same assay as above. Conditions: compound 0.5 µM; ATP 10 µM.

Point of comparison: COc1cc2ncnc(Nc3ccc(O)c(Br)c3)c2cc1OC, residual activity 104%. Against it:
- CCOc1cc2ncnc(Nc3cccc(Br)c3)c2cc1OCC — lower, 82.8%
- O=C1NC(=O)c2c1c1c3ccccc3[nH]c1c1[nH]c3cc(Br)ccc3c21 — lower, 86%
- COc1cc2c(cc1OC)-c1[nH]nc(Nc3cccc(F)c3)c1C2 — lower, 97.3%

These compounds were tested against IGF1R (human) (UniProt P08069) in the same assay as above. Conditions: compound 0.5 µM; ATP 10 µM.
IGF1R (human), sequence (P08069 whole entry, looked up): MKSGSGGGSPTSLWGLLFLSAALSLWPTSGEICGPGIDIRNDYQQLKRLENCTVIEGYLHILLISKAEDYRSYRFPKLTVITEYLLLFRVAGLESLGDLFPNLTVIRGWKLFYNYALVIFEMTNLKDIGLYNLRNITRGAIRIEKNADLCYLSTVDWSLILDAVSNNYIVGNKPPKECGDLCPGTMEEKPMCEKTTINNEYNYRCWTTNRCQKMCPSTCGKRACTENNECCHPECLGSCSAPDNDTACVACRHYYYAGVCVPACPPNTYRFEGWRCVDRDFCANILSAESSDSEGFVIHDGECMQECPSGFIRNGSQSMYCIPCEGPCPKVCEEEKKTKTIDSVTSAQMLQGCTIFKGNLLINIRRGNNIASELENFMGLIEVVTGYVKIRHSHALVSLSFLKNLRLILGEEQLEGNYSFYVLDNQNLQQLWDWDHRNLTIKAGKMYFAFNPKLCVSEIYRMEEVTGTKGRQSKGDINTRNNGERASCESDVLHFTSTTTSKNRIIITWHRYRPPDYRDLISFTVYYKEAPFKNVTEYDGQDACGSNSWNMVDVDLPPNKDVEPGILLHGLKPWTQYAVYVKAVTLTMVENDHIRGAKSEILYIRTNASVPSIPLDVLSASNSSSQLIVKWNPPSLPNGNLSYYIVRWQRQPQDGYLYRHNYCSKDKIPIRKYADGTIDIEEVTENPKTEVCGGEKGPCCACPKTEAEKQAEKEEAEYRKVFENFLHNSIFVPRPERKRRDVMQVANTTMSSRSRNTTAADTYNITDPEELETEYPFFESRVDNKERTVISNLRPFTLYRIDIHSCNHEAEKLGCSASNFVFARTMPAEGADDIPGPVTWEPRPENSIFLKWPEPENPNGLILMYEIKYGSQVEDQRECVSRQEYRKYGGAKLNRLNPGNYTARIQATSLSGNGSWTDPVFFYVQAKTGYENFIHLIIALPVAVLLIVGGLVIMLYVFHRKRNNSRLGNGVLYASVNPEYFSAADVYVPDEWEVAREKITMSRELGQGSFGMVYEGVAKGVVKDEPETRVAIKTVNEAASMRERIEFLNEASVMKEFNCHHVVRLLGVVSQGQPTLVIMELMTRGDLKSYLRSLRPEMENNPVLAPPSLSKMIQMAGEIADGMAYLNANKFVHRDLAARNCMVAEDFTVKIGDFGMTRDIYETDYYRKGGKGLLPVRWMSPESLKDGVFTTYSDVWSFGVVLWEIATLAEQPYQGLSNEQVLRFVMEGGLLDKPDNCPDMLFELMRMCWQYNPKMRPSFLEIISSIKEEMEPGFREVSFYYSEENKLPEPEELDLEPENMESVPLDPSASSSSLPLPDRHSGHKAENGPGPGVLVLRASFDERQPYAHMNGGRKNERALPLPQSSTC

Point of comparison: COc1cc2ncnc(Nc3ccc(O)c(Br)c3)c2cc1OC, residual activity 104%. Against it:
- CCOc1cc2ncnc(Nc3cccc(Br)c3)c2cc1OCC — lower, 101%
- O=C1NC(=O)c2c1c1c3ccccc3[nH]c1c1[nH]c3cc(Br)ccc3c21 — lower, 15%
- COc1cc2c(cc1OC)-c1[nH]nc(Nc3cccc(F)c3)c1C2 — lower, 93.9%

Each compound was assayed against MAP2K2 (human) (UniProt P36507) in the same assay as above. Conditions: compound 0.5 µM; ATP 10 µM.

Point of comparison: COc1cc2c(cc1OC)-c1[nH]nc(Nc3cccc(F)c3)c1C2, residual activity 99.8%. Against it:
- COc1cc2ncnc(Nc3ccc(O)c(Br)c3)c2cc1OC — lower, 86.2%
- CCOc1cc2ncnc(Nc3cccc(Br)c3)c2cc1OCC — lower, 95.5%
- O=C1NC(=O)c2c1c1c3ccccc3[nH]c1c1[nH]c3cc(Br)ccc3c21 — higher, 105%

What follows are compounds tested against MUSK (human) (UniProt O15146) in the same assay as above. Conditions: compound 0.5 µM; ATP 10 µM.

Point of comparison: O=C1NC(=O)c2c1c1c3ccccc3[nH]c1c1[nH]c3cc(Br)ccc3c21, residual activity 88.4%. Against it:
- COc1cc2ncnc(Nc3ccc(O)c(Br)c3)c2cc1OC — lower, 78.2%
- CCOc1cc2ncnc(Nc3cccc(Br)c3)c2cc1OCC — higher, 92.6%
- COc1cc2c(cc1OC)-c1[nH]nc(Nc3cccc(F)c3)c1C2 — lower, 82.7%

Each compound was assayed against AKT2 (human) (UniProt P31751) in the same assay as above. Conditions: compound 0.5 µM; ATP 10 µM.

Point of comparison: CCOc1cc2ncnc(Nc3cccc(Br)c3)c2cc1OCC, residual activity 87.6%. Against it:
- COc1cc2ncnc(Nc3ccc(O)c(Br)c3)c2cc1OC — higher, 98.7%
- O=C1NC(=O)c2c1c1c3ccccc3[nH]c1c1[nH]c3cc(Br)ccc3c21 — lower, 86.9%
- COc1cc2c(cc1OC)-c1[nH]nc(Nc3cccc(F)c3)c1C2 — higher, 95.3%

What follows are compounds tested against PHKG1 (human) (UniProt Q16816) in the same assay as above. Conditions: compound 0.5 µM; ATP 10 µM.
PHKG1 (human), sequence (Q16816 whole entry, looked up): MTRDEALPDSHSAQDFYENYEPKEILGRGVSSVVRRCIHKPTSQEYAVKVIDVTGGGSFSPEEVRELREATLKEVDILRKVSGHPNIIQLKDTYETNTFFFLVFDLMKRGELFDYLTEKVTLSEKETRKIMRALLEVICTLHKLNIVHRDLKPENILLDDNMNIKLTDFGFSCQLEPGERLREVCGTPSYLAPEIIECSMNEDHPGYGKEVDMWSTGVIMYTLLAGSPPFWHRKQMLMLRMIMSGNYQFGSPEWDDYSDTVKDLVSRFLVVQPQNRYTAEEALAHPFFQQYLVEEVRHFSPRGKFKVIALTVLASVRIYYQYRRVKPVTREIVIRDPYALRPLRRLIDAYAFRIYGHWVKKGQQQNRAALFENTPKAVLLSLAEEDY

Point of comparison: CCOc1cc2ncnc(Nc3cccc(Br)c3)c2cc1OCC, residual activity 84.2%. Against it:
- COc1cc2ncnc(Nc3ccc(O)c(Br)c3)c2cc1OC — lower, 71.9%
- O=C1NC(=O)c2c1c1c3ccccc3[nH]c1c1[nH]c3cc(Br)ccc3c21 — lower, 40.7%
- COc1cc2c(cc1OC)-c1[nH]nc(Nc3cccc(F)c3)c1C2 — higher, 89%
